# Test results reported in patent publication US20240174716A1, “TRANSPORTER PEPTIDES AND APPLICATION THEREOF” (Vacino Biotech Co. Ltd, priority 2022, published 2024).
# Where “and” joins values, the source holds several entries; their conditions need not be identical. Identical values can stand only once. Like-named read-outs stand apart in the source and are kept apart here. Peptide text beside a SMILES is read from it.
# Assays:
# [1] = In vivo imaging system (IVIS) analysis of fluorescent dye-conjugated transporter peptides; set-up: species or system BALB/c mice; conditions: for quantified fluorescence signal in mouse brain: after 0.5 hour of the injection; for half-life: BALB/c, mouse, brain, intravenous, read-out: half-life of the fluorescence in the mouse brains (converted)
# Method: In this Example, the transporter peptide disclosed herein was administered to mice, and the distribution of the transporter peptide in the mice was detected with an in vivo fluorescence imaging system (IVIS).
# One (1) mg of each transporter peptides PT-001 (SEQ ID NO: 2), PT-025 (SEQ ID NO: 11), PT-034 (SEQ ID NO: 19), and PT-031 (SEQ ID NO: 17) was dissolved in 1 mL of buffer containing 50 mM sodium bicarbonate/bicarbonate to a final concentration of 1 mg/mL. […] of 10 mg/mL fluorescent dye (VivoTag 680 XL, PerkinElmer, USA) was added to the 1 mL transporter peptide solution, and the mixture was incubated at room temperature in the dark for 1 hour. The dye-labeled product was filtered with a 3 KDa centrifugal filter device (Amicon Ultra-0.5 Centrifugal filter devices, Millipore, USA) and centrifuged at 14,000×g for 15 minutes. The fluorescent dye-conjugated transporter peptide was diluted with 1×PBS to a final volume of 0.2 mL.
# BALB/c mice (BioLASCO Taiwan Co., Ltd, Taipei, Taiwan) at the age of 7-8 weeks were divided into a control group (n=1) and a test group (n=3). The mouse in the control group was administered 50 μL of fluorescent dye via tail vein injection. Mice in the group were administered 50 μL of the transporter peptide conjugated with fluorescent dye obtained above via tail vein injection. Mice were photographed using an optical imaging system (U-OI, MlLabs, Netherlands) at 0.5, 1, 2, 4, 6 and 24 hours after the injection for IVIS imaging analysis, with the excitation wavelength of 631 nm, the emission wavelength of 710 nm, and 10-second exposure time. Fluorescence signals of mouse brains were further quantified.
# Caco-2 cell monolayer = conditions: PT-034 on top of monolayer, 37° C.
# Method: In this example, the transport efficiency of the transporter peptide disclosed herein to the Caco-2 cell monolayer was tested to analyze the penetration effect of the transporter peptide on the tissue barrier, and to analyze the ability of the transporter peptide to induce transcytosis of the cell.
# Caco-2 cells were plated at 2×10^4 cells/cm^2 on 24-transwell inserts (BD Falcon, 353495) in DMEM medium with 10% FBS and cultured for 21 days to form a monolayer. Monolayers were then confirmed by transepithelial electrical resistance (TEER), and the monolayers which have at least 500-600 Ω cm^2 of TEER were qualified monolayers for the following transcytosis experiment.
# HPLC was conducted by using a Water ACQUITY Arc system. The chromatographic separation was performed on a C18 column (Waters XSelect HSS T3 […], 4.6 mm×250 mm). Column temperature was maintained and operated at 40° C. The mobile phase consisted of A-0.1% trifluoroacetic acid in water and B-100% methanol. Separation was performed according to the following gradient program: 0 min-10% B, 6 min-30% B, 12 min-50% B, 18 min-90% B, 23 min-10% B. The flow rate of the mobile phase was at 1 mL/min, the injection volume of the sample was 20 μL, and the total run time was within 30 mins.
# The caco-2 monolayers with TEER at 680 Ω cm^2 were equilibrated in DMEM medium (serum free). […] of PT-034 (SEQ ID NO: 19) was applied to the top of Caco-2 monolayers at 37° C. Samples of both upper and lower solution were collected at 0, 0.25, 0.5, 1, 2, 6 hours. Peptides were purified from the sample solution by solid phase extraction (SPE) using C-18 tips (Cat. no. 87784, Pierce, Waltham, Massachusetts, USA). Each sample was supplemented with a final concentration of 11.43 μM PT-034 as internal control. 300 μL sample was absorbed by the C18 tip and eluted by 100 μL methanol. The sample was then subjected to HPLC analysis. The HPLC peak area was calculated at retention time of 16.9 minutes, and a standard curve was plotted for calculating the contents of the transporter peptide in the sample solutions.
# [2] = 10 mg/kg tail vein injection
# Method: Brain tissue was collected one hour after the injection and triturated in 1.3 mL of 50 mM sodium bicarbonate/bicarbonate buffer. The brain tissue grinding fluid was centrifuged at 3000 rpm for 5 minutes, the supernatant was taken and further centrifuged at 14000 rpm for 15 minutes. Zero-point-four (0.4) mL of ice-cold methanol was added to 0.1 mL of the brain tissue grinding supernatant. The mixture was shook for 10 minutes, and then centrifuge at 14,000 rpm for 15 minutes. The brain tissue supernatant was then subjected to HPLC analysis whose method is as described in Example 2. The HPLC peak area was calculated at the retention time of 16.9 minutes, and a standard curve was plotted to calculate the content of the transporter peptide in each sample.
# [3] = 1 mg/kg dye-conjugated peptide, tail vein injection, 0.5, 1, 2, 4 and 6 hours after injection
SMILES,"distribution of fluorescent signal in mice (IVIS) [1, 3]","quantified fluorescence signal in mouse brain ([1]; 1 mg/kg, tail vein injection)","half-life ([1]; 1 mg/kg, tail vein injection) [min]",transporter peptide penetrated the Caco-2 cell monolayer (Caco-2 cell monolayer; 0.25 hours),transporter peptide penetrated the Caco-2 cell monolayer (Caco-2 cell monolayer; 1 hour) [%],transporter peptide penetrated the Caco-2 cell monolayer (Caco-2 cell monolayer; 2 hours) [%],transporter peptide penetrated the Caco-2 cell monolayer (Caco-2 cell monolayer; 6 hours) [%],"distribution of fluorescent signal in mice (IVIS) ([1]; 10 mg/kg dye-conjugated peptide, tail vein injection, 1, 2, 4 and 6 hours after injection)","quantified fluorescence signal in mouse brain compared with control group (Dye) ([1]; 10 mg/kg, tail vein injection, after 1 hour of the injection)","half-life ([1]; 10 mg/kg, tail vein injection) [min]","Content of the transporter peptid in the brain tissue ([2]; brain collected one hour after injection, individual mouse)","Injection dose/brain tissue weight ([2]; one hour after injection, individual mouse)","average transport efficiency to the brain ([2]; one hour after injection, mean of 2 mice)"
"CC[C@H](C)[C@H](NC(=O)[C@@H](N)CC(=O)O)C(=O)N[C@@H](CO)C(=O)N[C@H](C(=O)N[C@@H](CC(C)C)C(=O)N[C@@H](CCSC)C(=O)N[C@@H](CCCCN)C(=O)N[C@@H](CCC(=O)O)C(=O)N[C@@H](Cc1ccc(O)cc1)C(=O)N[C@@H](CC(=O)O)C(=O)O)C(C)C [PT-001, DISVLMKEYD] (H-DISVLMKEYD-OH)",enriched in the brain and spine,high levels of fluorescent signals,~300,,,,,,,,,,
"CC[C@H](C)[C@H](NC(=O)[C@@H](N)CC(=O)O)C(=O)N[C@@H](CO)C(=O)N[C@H](C(=O)N[C@@H](CC(C)C)C(=O)N[C@@H](CC(=O)O)C(=O)N[C@@H](CCCCN)C(=O)N[C@@H](CCC(=O)O)C(=O)N[C@@H](Cc1ccc(O)cc1)C(=O)N[C@@H](CC(=O)O)C(=O)O)C(C)C [PT-025, DISVLDKEYD] (H-DISVLDKEYD-OH; N-terminus and C-terminus assumed)",enriched in the brain and spine,high levels of fluorescent signals,~300,,,,,,,,,,
"CC[C@H](C)[C@H](NC(=O)[C@@H](N)CC(=O)O)C(=O)N[C@@H](CO)C(=O)N[C@H](C(=O)N[C@@H](CC(C)C)C(=O)N[C@@H](CCSC)C(=O)N[C@@H](CCCCN)C(=O)N[C@@H](CCC(=O)O)C(=O)N[C@@H](Cc1ccc(O)cc1)C(=O)N[C@@H](CC(N)=O)C(=O)O)C(C)C [PT-031, DISVLMKEYN] (H-DISVLMKEYN-OH)",enriched in the brain and spine,high levels of fluorescent signals,~300,,,,,,,,,,
"CC[C@H](C)[C@H](NC(=O)[C@@H](N)CC(=O)O)C(=O)N[C@@H](CO)C(=O)N[C@H](C(=O)N[C@@H](CC(C)C)C(=O)N[C@@H](CCSC)C(=O)N[C@@H](CCCCN)C(=O)N[C@@H](CCC(=O)O)C(=O)N[C@@H](Cc1ccc(O)cc1)C(=O)N[C@@H](CCC(N)=O)C(=O)O)C(C)C [PT-034, DISVLMKEYQ]",,,,about 8%,~40,~42,~56,enriched in the brain and spine,high level of fluorescent signal,~300,25.9 µg and 25.5 µg,23.48% ID/g of brain and 22.09% ID/g of brain,22.79 % ID/g of brain
